Legend:
[1] = molecular target: wild-type human cardiac sodium channel, hNav1.5 (Homo sapiens, UniProt Q14524); assay: Late INa screening assay (late sodium current, PatchXpress whole cell patch clamp); format: cell-based; settings: compound at 10 μM; read-out: Late INa % blk
hERG potassium channel = hERG potassium channel (Homo sapiens, UniProt Q12809); assay: hERG screening assay (PatchXpress patch clamp, CHO cell line)
hERG potassium channel, sequence (Q12809 whole entry): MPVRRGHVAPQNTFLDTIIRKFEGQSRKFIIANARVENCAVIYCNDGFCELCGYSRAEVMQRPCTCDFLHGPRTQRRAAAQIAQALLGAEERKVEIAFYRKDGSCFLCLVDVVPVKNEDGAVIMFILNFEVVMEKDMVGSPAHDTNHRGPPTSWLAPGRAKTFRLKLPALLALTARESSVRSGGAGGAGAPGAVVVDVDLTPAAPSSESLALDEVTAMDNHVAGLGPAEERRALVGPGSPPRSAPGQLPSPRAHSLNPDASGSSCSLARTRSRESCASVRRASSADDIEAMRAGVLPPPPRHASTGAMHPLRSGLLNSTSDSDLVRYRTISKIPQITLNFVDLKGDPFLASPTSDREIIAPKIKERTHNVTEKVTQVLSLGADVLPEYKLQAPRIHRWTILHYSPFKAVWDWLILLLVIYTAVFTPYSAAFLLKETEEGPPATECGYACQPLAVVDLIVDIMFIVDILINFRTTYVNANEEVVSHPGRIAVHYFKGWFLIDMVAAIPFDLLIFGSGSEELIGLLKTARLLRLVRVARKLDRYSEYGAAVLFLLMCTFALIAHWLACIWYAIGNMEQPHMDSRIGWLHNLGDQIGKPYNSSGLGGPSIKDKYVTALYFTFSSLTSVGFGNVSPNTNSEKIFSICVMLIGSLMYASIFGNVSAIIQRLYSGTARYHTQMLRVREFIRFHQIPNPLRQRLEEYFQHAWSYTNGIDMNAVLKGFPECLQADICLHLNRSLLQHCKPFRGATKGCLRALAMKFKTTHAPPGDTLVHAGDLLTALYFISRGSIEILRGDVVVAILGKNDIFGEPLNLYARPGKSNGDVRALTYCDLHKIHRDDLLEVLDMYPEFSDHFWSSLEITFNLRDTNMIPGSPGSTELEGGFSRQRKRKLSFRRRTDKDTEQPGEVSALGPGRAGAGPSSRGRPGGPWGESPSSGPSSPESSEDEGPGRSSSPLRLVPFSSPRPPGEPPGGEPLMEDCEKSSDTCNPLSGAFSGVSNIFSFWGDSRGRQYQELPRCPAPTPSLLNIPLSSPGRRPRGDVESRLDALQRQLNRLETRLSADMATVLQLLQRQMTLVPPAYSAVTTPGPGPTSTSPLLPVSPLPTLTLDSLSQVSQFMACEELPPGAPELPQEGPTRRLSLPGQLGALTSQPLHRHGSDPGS
Description: Compounds were screened to test their activity in blocking the hERG potassium channel. The hERG channel is heterologously expressed in a CHO (Chinese Hamster Ovary) cell line. Cells are maintained with standard tissue culture procedures and stable channel expression is maintained with 500 μg/ml G418 in the culture medium. Cells are harvested for testing on the PatchXpress automated patch clamp with Accumax (Innovative Cell Technologies, San Diego, Calif.) to isolate single cells.
The following solutions are used for electrophysiological recordings. The external solution contains: 2 mM CaCl2; 2 mM MgCl2; 4 mM KCl; 150 mM NaCl; 10 mM Glucose; 10 mM HEPES (pH 7.4 with 1M NaOH, osmolarity).
hERG channels are activated when the voltage is stepped to +20 mV from the −80 mV holding potential (see FIG. 3). During a 5 second step at +20 mV, the channels activate and then largely inactivate, so the currents are relatively small. Upon returning to −50 mV from +20 mV, hERG currents transiently become much larger as inactivation is rapidly removed and then the channel closes. The first step to −50 mV for 300 ms is used as a baseline for measuring the peak amplitude during the step to −50 mV after channel activation. The peak current at −50 mV is measured both under control conditions and after addition of compound.
All compounds are prepared as 10 mM DMSO stocks in glass vials. Stock solutions are mixed by vigorous vortexing and sonication for about 2 minutes at room temperature. For testing, compounds are diluted in glass vials using an intermediate dilution step in pure DMSO and then further diluted to working concentrations in external solution. Dilutions are prepared no longer than 20 minutes before use.
After achieving the whole-cell configuration, cells are monitored for 90 seconds to assess stability and washed with external solution for 66 seconds. The voltage protocol described above is then applied to the cells every 12 seconds and throughout the whole procedure. Only cells with stable recording parameters and meeting specified health criteria are allowed to enter the compound addition procedure.
External solution containing 0.1% DMSO (vehicle) is applied to the cells first to establish the control peak current amplitude. After allowing the current to stabilize for 3 to 5 minutes, 1 μM and then 10 μM test compounds are applied. Each compound concentration is added 4 times and cells are kept in test solution until the effect of the compound reaches steady state or for a maximum of 12 minutes. […] Washout in the external solution compartment is performed until the recovery of the current reaches steady state. Data are analyzed using DataXpress, Clampfit (Molecular Devices, Inc., Sunnyvale) and Origin 7 (Originlab Corp.)

wild-type human cardiac sodium channel, hNav1.5, sequence (Q14524 whole entry): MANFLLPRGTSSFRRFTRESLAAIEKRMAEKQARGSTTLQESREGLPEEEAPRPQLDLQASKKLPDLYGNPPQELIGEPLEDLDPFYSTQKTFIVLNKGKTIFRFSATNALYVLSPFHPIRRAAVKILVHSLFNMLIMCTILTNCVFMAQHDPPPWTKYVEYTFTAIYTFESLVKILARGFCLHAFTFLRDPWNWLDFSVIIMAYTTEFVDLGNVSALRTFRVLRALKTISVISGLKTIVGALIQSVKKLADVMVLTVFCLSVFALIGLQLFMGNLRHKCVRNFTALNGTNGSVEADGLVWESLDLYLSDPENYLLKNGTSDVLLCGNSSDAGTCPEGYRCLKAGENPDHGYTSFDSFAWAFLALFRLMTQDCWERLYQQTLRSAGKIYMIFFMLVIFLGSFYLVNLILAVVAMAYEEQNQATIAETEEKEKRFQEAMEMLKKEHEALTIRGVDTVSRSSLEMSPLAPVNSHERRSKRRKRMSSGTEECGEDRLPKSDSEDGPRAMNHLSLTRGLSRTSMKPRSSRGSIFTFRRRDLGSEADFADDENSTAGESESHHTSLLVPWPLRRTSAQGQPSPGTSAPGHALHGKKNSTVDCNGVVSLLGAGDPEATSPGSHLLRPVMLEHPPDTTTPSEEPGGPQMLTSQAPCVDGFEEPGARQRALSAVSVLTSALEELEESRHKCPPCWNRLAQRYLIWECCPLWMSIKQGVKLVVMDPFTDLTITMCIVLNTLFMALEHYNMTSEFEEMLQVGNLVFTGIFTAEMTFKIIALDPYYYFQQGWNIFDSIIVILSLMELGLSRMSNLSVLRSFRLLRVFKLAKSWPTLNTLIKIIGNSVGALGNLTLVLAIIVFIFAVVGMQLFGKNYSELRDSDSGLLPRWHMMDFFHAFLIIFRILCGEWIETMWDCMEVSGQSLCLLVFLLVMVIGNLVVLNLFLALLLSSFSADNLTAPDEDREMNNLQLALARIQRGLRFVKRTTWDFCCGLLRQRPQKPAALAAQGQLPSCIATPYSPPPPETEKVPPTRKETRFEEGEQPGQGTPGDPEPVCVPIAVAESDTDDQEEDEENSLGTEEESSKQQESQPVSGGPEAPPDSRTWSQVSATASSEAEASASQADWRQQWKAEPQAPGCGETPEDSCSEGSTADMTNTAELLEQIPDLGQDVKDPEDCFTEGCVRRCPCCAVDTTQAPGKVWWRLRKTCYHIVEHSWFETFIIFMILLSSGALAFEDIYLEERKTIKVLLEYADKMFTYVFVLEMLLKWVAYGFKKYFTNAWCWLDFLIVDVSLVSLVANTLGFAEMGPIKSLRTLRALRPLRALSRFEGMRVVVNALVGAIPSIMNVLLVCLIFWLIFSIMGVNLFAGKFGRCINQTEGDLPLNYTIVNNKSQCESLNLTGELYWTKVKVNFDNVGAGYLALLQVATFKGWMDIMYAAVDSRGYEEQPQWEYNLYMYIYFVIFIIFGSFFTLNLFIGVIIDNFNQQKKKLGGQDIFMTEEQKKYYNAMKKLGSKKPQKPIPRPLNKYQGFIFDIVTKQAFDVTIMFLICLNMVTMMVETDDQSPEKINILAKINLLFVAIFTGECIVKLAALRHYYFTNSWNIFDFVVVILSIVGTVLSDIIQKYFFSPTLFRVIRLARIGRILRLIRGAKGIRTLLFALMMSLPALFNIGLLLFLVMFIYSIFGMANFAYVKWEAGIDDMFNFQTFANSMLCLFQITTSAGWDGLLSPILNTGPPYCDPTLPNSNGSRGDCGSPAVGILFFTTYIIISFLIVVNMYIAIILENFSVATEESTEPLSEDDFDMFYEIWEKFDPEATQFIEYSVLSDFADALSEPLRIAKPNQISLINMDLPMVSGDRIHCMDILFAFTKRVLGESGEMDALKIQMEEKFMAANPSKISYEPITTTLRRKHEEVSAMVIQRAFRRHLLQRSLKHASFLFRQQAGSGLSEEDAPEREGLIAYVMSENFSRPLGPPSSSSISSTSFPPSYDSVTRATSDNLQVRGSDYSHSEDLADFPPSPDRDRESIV

Compound	inhibition at 10 µM [1] [%]	hERG Patch Clamp hERG % blk (hERG potassium channel; 1 μM) [%]	hERG Patch Clamp hERG % blk (hERG potassium channel; 10 μM) [%]
CCOC(=O)C1=C(C)Nc2nnnn2C1c1ccccc1-n1cccn1.Cl (stereo not drawn) [PT-477, ethyl 7-(2-(1H-pyrazol-1-yl)phenyl)-5-methyl-4,7-dihydrotetrazolo[1,5-a]pyrimidine-6-carboxylate hydrochloride]	6.2	12.0	44.0
N#CC1=C(N)NC2=C(C(=O)CCC2)C1c1ccc(Br)cc1 (stereo not drawn) [PT-095, 2-amino-4-(4-bromophenyl)-5-oxo-1,4,5,6,7,8-hexahydroquinoline-3-carbonitrile]	4.9	10.0	24.5
CCOC(=O)C1=C(C)Nc2nnnn2C1c1ccccc1-n1ccnc1C.Cl (stereo not drawn) [PT-457, ethyl 5-methyl-7-(2-(2-methyl-1H-imidazol-1-yl)phenyl)-4,7-dihydrotetrazolo[1,5-a]pyrimidine-6-carboxylate hydrochloride]	12.6	10.0	21.0
CCOC(=O)C1=C(C)NC2=C(C(=O)CCC2)C1c1ccnc2ccccc12 (stereo not drawn) [PT-190, ethyl 2-methyl-5-oxo-1,4,5,6,7,8-hexahydro-4,4′-biquinoline-3-carboxylate]	4.2	10.5	32.0
CCOC(=O)C1=C(C)Nc2[nH]nc(C)c2C1c1cccc2ccccc12 (stereo not drawn) [PT-074, ethyl 3,6-dimethyl-4-(naphthalen-1-yl)-4,7-dihydro-1H-pyrazolo[3,4-b]pyridine-5-carboxylate]	27.7	14.0	43.0
COC(=O)C1=C(C)Nc2nnnn2C1c1cccc2ccccc12 (stereo not drawn) [PT-512, methyl 5-methyl-7-(naphthalen-1-yl)-4,7-dihydrotetrazolo[1,5-a]pyrimidine-6-carboxylate]	26.6	10.5	14.0
CCOC(=O)C1=C(C)NC(C)=C(C(=O)OCC)C1c1sc2ccccc2c1C [PT-116, diethyl 2,6-dimethyl-4-(3-methylbenzo[b]thiophen-2-yl)-1,4-dihydropyridine-3,5-dicarboxylate]	–	22.9	66.0
CCOC(=O)C1=C(C)Nc2nnnn2C1c1csc2ccccc12 (stereo not drawn) [PT-017, ethyl 7-(benzo[b]thiophen-3-yl)-5-methyl-4,7-dihydrotetrazolo[1,5-a]pyrimidine-6-carboxylate]	45.9	10.0	23.5
CCOC(=O)C1=C(C)Nc2nnnn2C1c1cc2ccccc2o1 (stereo not drawn) [PT-019, ethyl 7-(benzofuran-2-yl)-5-methyl-4,7-dihydrotetrazolo[1,5-a]pyrimidine-6-carboxylate]	35.7	10.0	26.0
COc1ccc2ccccc2c1C1C(C(=O)OCc2ccccc2)=C(C)Nc2nnnn21 (stereo not drawn) [PT-030, benzyl 7-(2-methoxynaphthalen-1-yl)-5-methyl-4,7-dihydrotetrazolo[1,5-a]pyrimidine-6-carboxylate]	66.5	10.5	34.5
CCOC(=O)C1=C(C)Nc2nccn2C1c1ccc2ccccc2c1 (stereo not drawn) [PT-086, ethyl 7-methyl-5-(naphthalen-2-yl)-5,8-dihydroimidazo[1,2-a]pyrimidine-6-carboxylate]	38.8	13.5	57.5
CC1=C(C(=O)OCc2ccc(Cn3cccn3)cc2)C(c2cccs2)n2nnnc2N1 (stereo not drawn) [PT-280, 4-((1H-pyrazol-1-yl)methyl)benzyl 5-methyl-7-(thiophen-2-yl)-4,7-dihydrotetrazolo[1,5-a]pyrimidine-6-carboxylate]	45.9	11.5	48.0
CC1=C(C(=O)O[C@@H](C)c2ccccc2)[C@@H](c2cccc3ccccc23)n2nnnc2N1 [PT-050, (R)-((S)-1-phenylethyl) 5-methyl-7-(naphthalen-1-yl)-4,7-dihydrotetrazolo[1,5-a]pyrimidine-6-carboxylate]	94	10.0	53.5
CCCC1=C(C(=O)OCC)C(c2ccsc2)C2=C(CC(c3ccccc3)CC2=O)N1 (stereo not drawn) [PT-149, ethyl 5-oxo-7-phenyl-2-propyl-4-(thiophen-3-yl)-1,4,5,6,7,8-hexahydroquinoline-3-carboxylate]	71.5	24.3	67.0
CCOC(=O)C1=C(C)Nc2nnnn2C1c1ccccc1-n1ccnc1.Cl (stereo not drawn) [PT-476, ethyl 7-(2-(1H-imidazol-1-yl)phenyl)-5-methyl-4,7-dihydrotetrazolo[1,5-a]pyrimidine-6-carboxylate hydrochloride]	2.6	17.5	23.0
CCS(=O)(=O)N1CCN(c2cccc(OC)c2C2C(C(=O)OCc3ccccc3)=C(C)Nc3nnnn32)CC1 (stereo not drawn) [PT-378, benzyl 7-(2-(4-(ethylsulfonyl)piperazin-1-yl)-6-methoxyphenyl)-5-methyl-4,7-dihydrotetrazolo[1,5-a]pyrimidine-6-carboxylate]	42	10.0	41.5

Compound	inhibition at 10 µM [1] [%]	hERG Patch Clamp hERG % blk (hERG potassium channel; 1 μM) [%]	hERG Patch Clamp hERG % blk (hERG potassium channel; 10 μM) [%]
CC1=C(C(=O)OCc2ccccc2)C(c2ccccc2-c2ccc(NS(C)(=O)=O)cc2)c2cn[nH]c2N1 (stereo not drawn) [PT-366, benzyl 6-methyl-4-(4′-(methylsulfonamido)biphenyl-2-yl)-4,7-dihydro-1H-pyrazolo[3,4-b]pyridine-5-carboxylate]	87.8	28.0	92.0
CC1=C(C(=O)NCc2ccccc2)C(c2ccsc2)C2=C(CCCC2=O)N1 (stereo not drawn) [PT-178, N-benzyl-2-methyl-5-oxo-4-(thiophen-3-yl)-1,4,5,6,7,8-hexahydroquinoline-3-carboxamide]	0.3	11.5	30.0
CC1=C(C(=O)OCc2ccccc2)C(c2ccccc2-c2ccc(C(=O)O)cc2)C2=C(CCCC2=O)N1 (stereo not drawn) [PT-249, 2′-(3-(benzyloxycarbonyl)-2-methyl-5-oxo-1,4,5,6,7,8-hexahydroquinolin-4-yl)biphenyl-4-carboxylic acid]	20	11.5	15.5
CC1=C(C(=O)O[C@@H](C)c2ccccc2)C(c2cc3ccccc3o2)n2nnnc2N1 (stereo partly drawn) [PT-059, (S)-1-phenylethyl 7-(benzofuran-2-yl)-5-methyl-4,7-dihydrotetrazolo[1,5-a]pyrimidine-6-carboxylate]	–	10.0	66.5
CC1=C(c2nnc(C)o2)C(c2cccc3ccccc23)n2nnnc2N1 (stereo not drawn) [PT-267, 2-methyl-5-(5-methyl-7-(naphthalen-1-yl)-4,7-dihydrotetrazolo[1,5-a]pyrimidin-6-yl)-1,3,4-oxadiazole]	17	–	–
CC1=C(C(=O)OC(C)C)C(c2ccc(-c3ccc(Cl)cc3)o2)C(C(=O)OC(C)C)=C(C)N1 [PT-126, diisopropyl 4-(5-(4-chlorophenyl)furan-2-yl)-2,6-dimethyl-1,4-dihydropyridine-3,5-dicarboxylate]	-39	–	–
CC1=C(C(=O)OCc2ccccc2)C(c2ccc(B(O)O)cc2)n2nnnc2N1 (stereo not drawn) [PT-300, 4-(6-(benzyloxycarbonyl)-5-methyl-4,7-dihydrotetrazolo[1,5-a]pyrimidin-7-yl)phenylboronic acid]	14.4	–	–
COc1ccc(C2C(C(=O)OCc3ccccc3)=C(C)Nc3nnnn32)c2ccccc12 (stereo not drawn) [PT-421, benzyl 7-(4-methoxynaphthalen-1-yl)-5-methyl-4,7-dihydrotetrazolo[1,5-a]pyrimidine-6-carboxylate]	23.5	–	–
CC1=C(c2nnc(Cc3ccccc3)o2)C(c2cccc3ccccc23)n2nnnc2N1 (stereo not drawn) [PT-261, 2-benzyl-5-(5-methyl-7-(naphthalen-1-yl)-4,7-dihydrotetrazolo[1,5-a]pyrimidin-6-yl)-1,3,4-oxadiazole]	59.4	–	–
COc1ccc(C2C(C(=O)OCc3ccccc3)=C(C)Nc3nnnn32)c([N+](=O)[O-])c1 (stereo not drawn) [PT-419, benzyl 7-(4-methoxy-2-nitrophenyl)-5-methyl-4,7-dihydrotetrazolo[1,5-a]pyrimidine-6-carboxylate]	44.2	–	–
CC1=C(C(=O)OCc2ccc(-c3ccccc3)cc2)C(c2cccc3ccccc23)n2nnnc2N1 (stereo not drawn) [PT-004, biphenyl-4-ylmethyl 5-methyl-7-(naphthalen-1-yl)-4,7-dihydrotetrazolo[1,5-a]pyrimidine-6-carboxylate]	25.5	–	–
CC1=C(C(=O)OCc2ccccc2)C(c2ccccc2Br)n2nnnc2N1 (stereo not drawn) [PT-387, benzyl 7-(2-bromophenyl)-5-methyl-4,7-dihydrotetrazolo[1,5-a]pyrimidine-6-carboxylate]	84.8	–	–
CCOC(=O)C1=C(C)NC2=C(C(=O)CCC2)C1c1cccnc1Cl (stereo not drawn) [PT-189, ethyl 4-(2-chloropyridin-3-yl)-2-methyl-5-oxo-1,4,5,6,7,8-hexahydroquinoline-3-carboxylate]	0.5	–	–
CC1=C(C(=O)N2CCCCC2)C(c2cccc3ccccc23)C2=C(CCCC2=O)N1 (stereo not drawn) [PT-265, 2-methyl-4-(naphthalen-1-yl)-3-(piperidine-1-carbonyl)-4,6,7,8-tetrahydroquinolin-5(1H)-one]	18.6	–	–
CC1=C(C(=O)OCc2ccccc2)C(c2ccccc2-c2c(C)noc2C)n2nnnc2N1 (stereo not drawn) [PT-376, benzyl 7-(2-(3,5-dimethylisoxazol-4-yl)phenyl)-5-methyl-4,7-dihydrotetrazolo[1,5-a]pyrimidine-6-carboxylate]	61	–	–
